Like-named read-outs stand apart in the source and are kept apart here.
What was measured:
Taspase1 = biological target: T1, Taspase1 (Homo sapiens, UniProt Q9H6P5); test: biochemical
T1 sequence (Q9H6P5 1-233): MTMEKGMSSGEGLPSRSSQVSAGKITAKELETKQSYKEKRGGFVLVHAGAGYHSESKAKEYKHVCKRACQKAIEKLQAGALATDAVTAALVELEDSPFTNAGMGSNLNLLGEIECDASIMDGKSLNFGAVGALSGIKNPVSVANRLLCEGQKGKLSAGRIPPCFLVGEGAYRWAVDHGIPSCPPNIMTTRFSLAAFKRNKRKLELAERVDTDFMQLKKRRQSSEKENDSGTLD
T1 sequence (Q9H6P5 234-420): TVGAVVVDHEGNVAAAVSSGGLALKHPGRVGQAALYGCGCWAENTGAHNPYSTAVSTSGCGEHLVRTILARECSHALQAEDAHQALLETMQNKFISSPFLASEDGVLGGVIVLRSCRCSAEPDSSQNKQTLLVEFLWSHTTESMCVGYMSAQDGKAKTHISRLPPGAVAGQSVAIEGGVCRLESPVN
Method: (§1) FIGS. 4A-4B. […] “Taspase1 IC50 (FAM)”=inhibition of cleavage of a Taspase1 peptide substrate; detected by fluorescence resonance energy transfer (FRET). “6.6 mM GSH added”=same assay, in the presence of 6.6 mM glutathione (GSH). […] “Ki”=Ki determined by kinact/Ki measurements, using the Taspase1/FRET-peptide assay described above.
Ki is the binding constant that describes the energy of association for the non-covalent portion of the molecule. Kinact is the rate at which the covalent bond is formed between the small molecule and the protein.

[1] = biological target: T2, wildtype Taspase1 (split Tasp1 WT) (Homo sapiens, UniProt Q9H6P5); test: biochemical
T2 sequence (Q9H6P5 1-233): T1 sequence (Q9H6P5 1-233)
T2 sequence (Q9H6P5 234-420): T1 sequence (Q9H6P5 234-420)
Method: as §1
To extend that assay, compounds are also tested in the presence of 6.6 mM GSH as a non-specific, but physiologically relevant, thiol competitor.

[2] = Stability of shouldered triazole compound (method not described)
HSAEC 1-KT cells = test: Cell viability, HSAEC 1-KT; assay type: cell-based; settings: read-out: IC50 (μM) HSAEC 1-KT (Lung)
[3] = test system: MDA-MB-231 triple-negative breast cancer cells; test: Cell viability, MDA-MB-231; assay type: cell-based; settings: Homo sapiens
PC3 prostate cells = test: Cell viability, PC3; assay type: cell-based; settings: read-out: IC50 (μM) PC3 (Prostate)
PC9 lung cancer cells = test: Cell viability (CellTiter-Glo), PC9; assay type: cell-based
H522 lung cancer cells = test: Cell viability, H522; assay type: cell-based; settings: Homo sapiens
H1975 lung cancer cells = test: Cell viability, H1975; assay type: cell-based; settings: Homo sapiens
[4] = test system: PC9, H1975, H522, HSAEC 1-KT, MDA-MB-231 and PC3 cell lines; test: Cell viability, statements over all cell lines studied; assay type: cell-based; settings: for EC50: read-out: EC50
split Tasp1 WT = biological target: T3, split Tasp1 WT (Homo sapiens, UniProt Q9H6P5); test: LC-MS tethering dose-response (DR50) assay; assay type: binding; settings: relative to the other shouldered piperazine analogs
T3 construct: residues 1-233 (alpha domain) in Multiple Cloning Site-1 (MCS-1); residues 234-420 (beta domain) in MCS-2; His6 (TEV-cleavable) (N, cleaved yes); made in house; host or cells: E. coli Rosetta2(DE3)
T3 sequence (Q9H6P5 1-233): T1 sequence (Q9H6P5 1-233)
T3 sequence (Q9H6P5 234-420): T1 sequence (Q9H6P5 234-420)

[5] = read-out: kinact (s^−1), Table 1
[6] = read-out: kinact (s^−1), Table 1a
[7] = Biochemical IC50 (nM) +6.6 mM GSH, Table 1, +6.6 mM GSH, 3FAM/QXL520 fluorescent dyes
[8] = Biochemical IC50 (nM) no GSH, Table 1, no GSH, 3FAM/QXL520 fluorescent dyes
[9] = WT IC50 (nM) 6.6 mM GSH, Table 1a, 6.6 mM GSH, average ± std dev
[10] = WT IC50 (nM) No GSH, Table 1a, no GSH, average ± std dev
[11] = MDA-MB-231, Table 2a cytotoxicity, read-out: IC50 (μM) MDA-MB-231 (Breast)
[12] = Table 2a cytotoxicity, read-out: IC50 (μM) PC9 (Lung)
[13] = NCI-H522, Table 2a cytotoxicity, read-out: IC50 (μM) H522 (Lung)
[14] = NCI-H1975, read-out: IC50 (μM) H1975 (Lung), Table 2a cytotoxicity
[15] = MDA-MB-231, Table 2, read-out: MDA-MB-231 [Breast]
[16] = NCI-H1975, read-out: H1975 [Lung] (uM), Table 2

SMILES	Ki (Taspase1; Ki (uM), Table 1)	Ki (Taspase1; Ki (μM), Table 1a)	kinact (Taspase1; [5])	kinact (Taspase1; [6])	IC50 [1, 7]	IC50 [1, 8]	IC50 ([1]; IC50 vs split Tasp1 WT)	IC50 [1, 9]	IC50 [1, 10]	IC50 [3, 11]	IC50 (PC9 lung cancer cells; [12])	IC50 (H1975 lung cancer cells; [14])	also measured
C#CCOC[C@H]1CN(S(=O)(=O)C=C)CCN1Cc1ccc(OC(F)(F)F)c(F)c1 [SMDC883, (2R)-4-(ethenesulfonyl)-1-{[3-fluoro-4-(trifluoromethoxy)phenyl]methyl}-2-[(prop-2-yn-1-yloxy)methyl]piperazine]	64.3 µM	87 µM	0.037 s⁻¹	0.045 s⁻¹	340 nM	26 nM	~20 nM	340 ± 30 nM	26 ± 8 nM	–	–	–	–
C=CS(=O)(=O)NCCCc1ccc(OC(F)(F)F)cc1 [SMDC714]	–	–	–	–	–	–	16000 nM	–	–	–	–	–	–
C=CS(=O)(=O)N1CCN(Cc2ccc(OC(F)(F)F)c(F)c2)[C@@H](COCc2c[nH]nn2)C1 [SMDC556, (R)-2-(((1H-1,2,3-triazol-4-yl)methoxy)methyl)-1-(3-fluoro-4-(trifluoromethoxy)benzyl)-4-(vinylsulfonyl)piperazine]	–	–	–	–	–	–	–	–	–	–	–	–	stability [2]: too unstable
CN(C)CCSSCCCNC(=O)Cc1ccc(OC(F)(F)F)cc1 [SMDC673, N-(3-{[2-(Dimethylamino)ethyl]disulfanyl}propyl)-2-[4-(trifluoromethoxy)phenyl]acetamide]	–	–	–	–	–	–	11300 nM	–	–	–	–	–	–
C=CS(=O)(=O)N1CCN(Cc2ccc(OC(F)(F)F)c(F)c2)CC1 [SMDC689, 1-(Ethenesulfonyl)-4-{[3-fluoro-4-(trifluoromethoxy)phenyl]methyl}piperazine]	32.9 µM	45.8 ± 13.4 µM	0.028 s⁻¹	0.031 ± 0.003 s⁻¹	661 nM	51 nM	51 nM	661 ± 152 nM	51 ± 47 nM	16.5 ± 1.5 µM	11 ± 1 µM	17.6 ± 8.3 µM	IC50 (HSAEC 1-KT cells; Table 2a cytotoxicity): 13 µM; IC50 (PC3 prostate cells; Table 2a cytotoxicity): 15 µM; IC50 (H522 lung cancer cells; [13]): 20 ± 10 µM
C=CS(=O)(=O)N1CCN(Cc2ccc(OC(F)(F)F)c(F)c2)[C@@H](CCO)C1 [SMDC069, 2-[(2S)-4-(ethenesulfonyl)-1-{[3-fluoro-4-(trifluoromethoxy)phenyl]methyl}piperazin-2-yl]ethan-1-ol]	23.2 µM	33 µM	0.082 s⁻¹	0.112 s⁻¹	273 nM	17 nM	~20 nM	273 ± 68 nM	25 ± 16 nM	6 ± 4.1 µM	3.9 ± 2.6 µM	3.6 ± 2.2 µM	IC50 (HSAEC 1-KT cells; Table 2a cytotoxicity): 3.2 µM; EC50 [4]: 2 to 6 µM; IC50 (PC3 prostate cells; Table 2a cytotoxicity): 3.4 µM; IC50 (PC9 lung cancer cells; 72 h, FIG. 3B, read-out: IC50, reduced viability of EGFR mutant PC9 lung cancer cells): ~2 µM; IC50 (H522 lung cancer cells; [13]): 2 µM
C=CS(=O)(=O)N1CCN(Cc2ccc(OC(F)(F)F)cc2)CC1 [SMDC967, 1-(ethenesulfonyl)-4-{[4-(trifluoromethoxy)phenyl]methyl}piperazine]	6.02 µM	30 µM	0.011 s⁻¹	0.004 s⁻¹	–	168 nM	114 nM	–	168 ± 54 nM	–	–	–	–
CN(C)CCSSCCCC(=O)NCc1ccc(OC(F)(F)F)cc1 [SMDC208, 4-{[2-(dimethylamino)ethyl]disulfanyl}-N-{[4-(trifluoromethoxy)phenyl]methyl}butanamide]	–	–	–	–	–	–	30300 nM	–	–	–	–	–	–
C=CS(=O)(=O)N1CCN(Cc2cccc(OC(F)(F)F)c2)CC1 [SMDC723, 1-(3-(Trifluoromethoxy)benzyl)-4-(vinylsulfonyl)piperazine]	–	–	–	–	–	–	40000 nM	–	–	–	–	27.8 ± 5.6 µM	IC50 (HSAEC 1-KT cells): ~32 µM; IC50 [3, 15]: ~37 µM; IC50 ([3]; MDA-MB-231, read-out: IC50 (μM) MDA-MB-231 (Breast), Table 2a cytotoxicity): 37 µM; IC50 ([4]; all cell lines studied, read-out: IC50 against cell lines studied): > 20 µM; IC50 (PC3 prostate cells): ~28 µM; IC50 (PC9 lung cancer cells; Table 2, read-out: PC9 [Lung]): ~22 µM; IC50 (PC9 lung cancer cells; read-out: IC50 (μM) PC9 (Lung), Table 2a cytotoxicity): 25.8 ± 2.7 µM; IC50 (H522 lung cancer cells; NCI-H522, read-out: IC50 (μM) H522 (Lung)): 24.4 ± 1.7 µM; IC50 (H1975 lung cancer cells; [16]): ~20 µM
C=CS(=O)(=O)N1CCN(Cc2ccc(OC(F)(F)F)c(F)c2)[C@@H](CN2CCS(=O)(=O)CC2)C1 [SMDC275, 4-{[(2S)-4-(ethenesulfonyl)-1-{[3-fluoro-4-(trifluoromethoxy)phenyl]methyl}piperazin-2-yl]methyl}-1λ^6-thiomorpholine-1,1-dione]	–	–	–	–	420 nM	27 nM	~20 nM	420 ± 80 nM	38 ± 16 nM	4.3 µM	3.5 µM	2.6 µM	IC50 [3, 15]: 4.3 µM; IC50 (PC9 lung cancer cells; Table 2, read-out: PC9 [Lung]): 3.5 µM; IC50 (H1975 lung cancer cells; [16]): 2.6 µM; binding affinity in the tethering assay (split Tasp1 WT): enhanced binding affinity
C=CS(=O)(=O)N1CCN(Cc2ccc(OC(F)(F)F)c(F)c2)[C@@H](COCc2cn[nH]c2)C1 [SMDC203, (R)-2-(((1H-pyrazol-4-yl)methoxy)methyl)-1-(3-fluoro-4-(trifluoromethoxy)benzyl)-4-(vinylsulfonyl)piperazine]	27.7 µM	45 µM	0.048 s⁻¹	0.061 s⁻¹	237 nM	22 nM	~20 nM	237 ± 40 nM	32 ± 18 nM	15.5 ± 2.5 µM	10.3 ± 0.3 µM	9.6 ± 1.5 µM	IC50 [3, 15]: ~13 µM; EC50 [4]: 9.6 to 15.5 µM; IC50 (PC3 prostate cells; Table 2a cytotoxicity): 15 µM; IC50 (PC9 lung cancer cells; Table 2, read-out: PC9 [Lung]): 10.5 µM; IC50 (H1975 lung cancer cells; [16]): 8.1 µM
